Measured values reported in patent publication US20070037179A1, “Methods of diagnosing and prognosticating solid tumors and melanoma” (priority 2004, published 2007).

How the values were obtained:
A3 adenosine receptors [1] = target: T1, A3 adenosine receptors (Homo sapiens, UniProt P0DMS8); experiment: [3H]MRE 3008F20 saturation binding to colonic membranes; design: Colon cancer tissues and related mucosa were homogenized in PBS buffer with a Polytron (Kinematica) and centrifuged; from tissue; host or cells: surgical specimens of human colorectal carcinoma, adenoma and adjacent/remote normal colonic mucosa
T1 sequence (P0DMS8 1-318): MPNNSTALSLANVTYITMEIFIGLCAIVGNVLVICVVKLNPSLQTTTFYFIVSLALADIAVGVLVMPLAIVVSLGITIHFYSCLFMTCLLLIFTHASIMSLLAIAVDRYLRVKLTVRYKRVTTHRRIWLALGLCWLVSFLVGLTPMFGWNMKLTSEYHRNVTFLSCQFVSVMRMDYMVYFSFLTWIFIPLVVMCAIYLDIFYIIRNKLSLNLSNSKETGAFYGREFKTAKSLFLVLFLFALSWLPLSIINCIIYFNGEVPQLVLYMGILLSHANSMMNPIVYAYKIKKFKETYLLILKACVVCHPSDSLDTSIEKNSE
Procedure: PREPARATION OF COLONIC MEMBRANE SUSPENSIONS. Colon cancer tissues and related mucosa were homogenized in PBS buffer with a Polytron (Kinematica) and centrifuged for 15 min at 48,000 g. The membrane pellet was resuspended in 50 mM Tris/HCl buffer pH 7.4 (50 mM Tris/HCl, 10 mM MgCl2, 1 mM EDTA) and incubated with 3 IU/ml of adenosine deaminase for 30 min at 37° C. This suspension was used for binding experiments.
(§1) Non-specific binding was determined in the presence of 1 μM MRE 3008F20. Bound and free radioactivity were separated, after an incubation time of 120 min at 4° C., by filtering the assay mixture using a Brandel cell harvester. The protein concentration was determined according to a Bio Rad method (26). Binding to A1 and A2A adenosine receptors was performed using [^3H]1,3-dipropyl-8-cyclopentyl-xanthine ([^3H]DPCPX) and [^3H]4-(2-[7-amino-2-(2-furyl)-[1,2,4]triazolo-[2,32][1,3,6]triazinyl-amino]ethyl)-phenol ([^3H]ZM 241385), respectively, as previously described (16, 24).
(§2) Data and statistical analysis. A weighted nonlinear least squares curve fitting program, LIGAND was used for computer analysis of the data from saturation experiments (28). Significant differences between control and patients with colorectal cancer were assessed using Student's t-test or analysis of variance (ANOVA) and the Dunnett's test when required. P<0.05 was considered significant. All data are reported as means±SEM.

A3 adenosine receptors [2] = target: T1, A3 adenosine receptors; experiment: [3H]MRE 3008F20 saturation binding to membranes of peripheral blood lymphocytes and neutrophils; design: endogenous in cells; host or cells: neutrophils and lymphocytes from peripheral venous blood of colorectal cancer patients and healthy volunteers; details: N=3
Procedure: as §1, §2

Bmax (A3 adenosine receptors [1]; adjacent normal (AN) mucosa, 2 cm from tumor): 295±20 fmol/mg of protein
Bmax (A3 adenosine receptors [1]; colonic membranes from 14 patients operated for non-neoplastic large bowel disease): 163±10 fmol/mg of protein
Bmax (A3 adenosine receptors [1]; large adenomas with high-grade dysplasia, N=4): 302±15 fmol/mg of protein
Bmax (A3 adenosine receptors [1]; remote normal (RN) mucosa, 10 cm from tumor): 196±10 fmol/mg of protein
Bmax (A3 adenosine receptors [1]; small adenomas with low-grade dysplasia, N=4): 155±24 fmol/mg of protein
Bmax (A3 adenosine receptors [1]; tumor tissues, 73 primary colorectal carcinomas, mean±SEM): 584±35 fmol/mg of protein
Bmax (A3 adenosine receptors [2]; lymphocytes of patients with small adenomas): 106±15 fmol/mg of protein
Bmax (A3 adenosine receptors [2]; neutrophils of patients with small adenomas): 547±77 fmol/mg of protein
Compound: CCCn1cc2c(nc(NC(=O)Nc3ccc(OC)cc3)n3nc(-c4ccco4)nc23)n1 [[^3H]MRE 3008F20, 5-N-(4-methoxyphenyl-carbamoyl)amino-8-propyl-2(2furyl)-pyrazolo-[4,3 e]-1,2,4-triazolo [1,5-c]pyrimidine]
